Results published in EP3928779A1 (Chugai Seiyaku Kabushiki Kaisha, priority 2014, dated 2016).

Test system: rat small-intestinal brush border membrane vesicles
Test: Inhibitory effect on 33PO4 uptake into rat small-intestinal brush border membrane vesicles (rapid filtration method)
Assay type: biochemical
Conditions: 33PO4 uptake into rat small-intestinal BBMVs; test compound 1 µM; reacted for 60 seconds
Experimental: Brush border membrane vesicles (BBMVs) were prepared using the upper region of the small intestine of each Wistar female rat (4-5 weeks old). […] The ^33PO4 transport activity of the small-intestinal BBMVs was determined by the rapid filtration method. […] Then, ice-cold buffer C (110 mM NaCl, 1 mM KH2PO4, and 10 mM HEPES (pH 7.5)) was added to each reaction mixture, which was immediately suctionfiltered through a Millipore filter. The filter was washed with buffer C, and each sample was then dissolved in a liquid scintillator. The amount of ^33PO4 uptake into BBMVs was measured using a liquid scintillation counter. […]

SMILES | Rate of uptake inhibition (%) (1 µM)
C[C@]12CCCN1N(Cc1cccc(F)c1F)C(=O)C(C(=O)Nc1ccc(Cl)cc1-c1ccc(C(F)(F)F)nc1)=C2O [Example 86] | 83
CN(C)S(=O)(=O)c1ccc(-c2nc(C(F)(F)F)ccc2NC(=O)C2=C(O)[C@@]3(C)CCCN3N(Cc3cccc(F)c3F)C2=O)cc1 [Example 87] | 84
C[C@]12CCCN1N(Cc1cccc(F)c1F)C(=O)C(C(=O)Nc1ccc(C(F)(F)F)cc1)=C2O [Example 89] | 67
C[C@]12CCCN1N(Cc1cccc(F)c1F)C(=O)C(C(=O)Nc1ccc(C(F)(F)F)cc1-c1ccc(C(F)(F)F)nc1)=C2O [Example 90] | 91
C[C@]12CCCN1N(Cc1cccc(F)c1F)C(=O)C(C(=O)Nc1ccc(C(F)(F)F)cc1-c1cncc(C(F)(F)F)c1)=C2O [Example 91] | 87
COCCOc1cc(NC(=O)C2=C(O)[C@@]3(C)CCCN3N(Cc3cccc(F)c3F)C2=O)c(-c2cccc(OC)c2OC)cc1C(F)(F)F [Example 92] | 81
COc1cccc(-c2cc(C(F)(F)F)ccc2NC(=O)C2=C(O)[C@@]3(C)CCCN3N(Cc3cccc(F)c3F)C2=O)n1 [Example 93] | 56
C[C@]12CCCN1N(Cc1cccc(F)c1F)C(=O)C(C(=O)Nc1ccc(C(F)(F)F)cc1-c1cnc(C#N)c([N+](=O)[O-])c1)=C2O [Example 99, (4aR)-N-[2-(6-Cyano-5-nitropyridin-3-yl)-4-(trifluoromethyl)phenyl]-1-[(2,3-difluorophenyl)methyl]-4-hydroxy-4a-methyl-2-oxo-6,7-dihydro-5H-pyrrolo[1,2-b]pyridazine-3-carboxamide] | 82
C[C@]12CCCN1N(Cc1cccc(F)c1F)C(=O)C(C(=O)Nc1ccc(C(F)(F)F)cc1-c1cc(C#N)ncn1)=C2O [Example 100] | 69
Cc1cc(-c2cc(C(F)(F)F)ccc2NC(=O)C2=C(O)[C@@]3(C)CCCN3N(Cc3cccc(F)c3F)C2=O)cnc1C#N [Example 101] | 57
C[C@]12CCCN1N(Cc1ccc(OCCN3CCOCC3)c(F)c1F)C(=O)C(C(=O)Nc1ccc(Cl)cc1-c1ccc(C(F)(F)F)nc1)=C2O [Example 102] | 65
CSc1ccc(-c2cc(C(F)(F)F)ccc2NC(=O)C2=C(O)[C@@]3(C)CCCN3N(Cc3ccc(OCCN4CCOCC4)c(F)c3F)C2=O)cn1 [Example 103] | 78
CSc1ncc(-c2cc(C(F)(F)F)ccc2NC(=O)C2=C(O)[C@@]3(C)CCCN3N(Cc3ccc(OCCN4CCOCC4)c(F)c3F)C2=O)cn1 [Example 104] | 73
CSc1ccc(-c2nc(C(F)(F)F)ccc2NC(=O)C2=C(O)[C@@]3(C)CCCN3N(Cc3cccc(F)c3F)C2=O)cn1 [Example 105] | 72
C[C@]12CCCN1N(Cc1ccc(OCCN3CCOCC3)c(F)c1F)C(=O)C(C(=O)Nc1ccc(C(F)(F)F)nc1-c1cncc(C(F)(F)F)c1)=C2O [Example 106] | 79
C[C@@]12CCCN1N(Cc1ccc(OCCN3CCOCC3)c(F)c1F)C(=O)C(C(=O)Nc1ccc(Cl)cc1-c1cc(C(F)(F)F)ncn1)=C2O.Cl [Example 107] | 54
C[C@@]12CCCN1N(Cc1ccc(OCCN3CCOCC3)c(F)c1F)C(=O)C(C(=O)Nc1ccc(C(F)(F)F)cc1-c1cc(C(F)(F)F)ncn1)=C2O.Cl [Example 108] | 54
Cc1ncc(-c2cc(C(F)(F)F)ccc2NC(=O)C2=C(O)[C@@]3(C)CCCN3N(Cc3cccc(F)c3F)C2=O)cc1C#N [Example 109, (4aR)-N-[2-(5-Cyano-6-methylpyridin-3-yl)-4-(trifluoromethyl)phenyl]-1-[(2,3-difluorophenyl)methyl]-4-hydroxy-4-methyl-2-oxo-6,7-dihydro-5H-pyrrolo[1.2-b]pyridazine-3-carboxamide] | 52
CN(C)S(=O)(=O)N1CCC(c2cc(C(F)(F)F)ccc2NC(=O)C2=C(O)[C@@]3(C)CCCN3N(Cc3cccc(F)c3F)C2=O)CC1 [Example 110] | 57
C[C@]12CCCN1N(Cc1cccc(F)c1F)C(=O)C(C(=O)Nc1ccc(C(F)(F)F)cc1-c1cnc(N3CC4(COC4)C3)c(C#N)c1)=C2O [Example 111, (4aR)-N-[2-[5-Cyano-6-(2-oxa-6-azaspiro[3.3]heptan-6-yl)pyridin-3-yl]-4-(trifluoromethyl)phenyl]-1-[(2,3-difluorophenyl)methyl]-4-hydroxy-4a-methyl-2-oxo-6.7-dihydro-5H-pyrrolo[1,2-b]pyridazine-3-carboxamide] | 56
COC(=O)CN(C)c1ncc(-c2cc(C(F)(F)F)ccc2NC(=O)C2=C(O)[C@@]3(C)CCCN3N(Cc3cccc(F)c3F)C2=O)cc1C#N [Example 112, Methyl 2-[[5-[2-[[(4aR)-1-[(2,3-difluorophenyl)methyl]-4-hydroxy-4a-methyl-2-oxo-6,7-dihydro-5H-pyrrolo[1,2-b]pyridazine-3-carbonyl]aminol-5-(trifluoromethyl)phenyl]-3-cyanopyridin-2-yl-methylamino] acetate] | 43
CSc1cc(-c2cc(C(F)(F)F)ccc2NC(=O)C2=C(O)[C@@]3(C)CCCN3N(Cc3cccc(F)c3F)C2=O)cnc1C#N [Example 113, (4aR)-N-[2-(6-Cyano-5-methylsulfanylpyridin-3-yl)-4-(trifluoromethyl)phenyl]-1-[(2,3-difluorophenyl)methyl]-4-hydroxy-4a-methyl-2-oxo-6,7-dihydro-5H-pyrrolo[1,2-b]pyridazine-3-carboxamide] | 84
CSc1ccc(-c2cc(C(F)(F)F)ccc2NC(=O)C2=C(O)[C@@]3(C)CCCN3N(Cc3ccc(CCCCCCC(=O)O)c(F)c3F)C2=O)cn1 [Example 115, 7-[4-[[(4aR)-4-1-Hydroxy-4a-methyl-3-[[2-(6-methylsulfanylpyridin-3-yl)-4-(trifluoromethyl)phenyl]carbamoyl]-2-oxo-6,7-dihydro-5H-pyrrolo[1,2-b]pyridazin-1-yl]methyl]-2,3-difluorophenyl]heptanoate] | 85
C[C@]12CCCN1N(Cc1ccc(CCCCCCC(=O)O)c(F)c1F)C(=O)C(C(=O)Nc1ccc(Cl)cc1-c1ccc(C(F)(F)F)nc1)=C2O [Example 116, 7-[4-[[(4aR)-3-[[4-Chloro-2-[6-(trifluoromethyl)pyridin-3-yl]phenyl]carbarnoyl]-4-hydroxy-4a-methyl-2-oxo-6,7-dihydro-5H-pyrrolo[1,2-b]pyridazin-1-yl]methyl]-2,3-difluorophenyl]heptanoate] | 72
CSc1ccc(-c2cc(C(F)(F)F)ccc2NC(=O)C2=C(O)[C@@]3(C)CCCN3N(Cc3ccc(C#CCCCCC(=O)O)c(F)c3F)C2=O)cn1 [Example 117, 7-[4-[[(4aR)-4-Hydroxy-4a-methyl-3-[[2-(6-methylsulfanylpyridin-3-yl)-4-(trifluoromethyl)phenyl]carbamoyl]-2-oxo-6.7-dihydro-5H-pyrrolo[1.2-b]pyridazin-1-yl]methyl]-2,3-difluorophenyl]hept-6-ynoate] | 78
CSc1ncc(-c2cc(C(F)(F)F)ccc2NC(=O)C2=C(O)[C@@]3(C)CCCN3N(Cc3ccc(C#CCCCCC(=O)O)c(F)c3F)C2=O)cn1 [Example 118] | 81
C[C@]12CCCN1N(Cc1ccc(C#CCCCCC(=O)O)c(F)c1F)C(=O)C(C(=O)Nc1ccc(C(F)(F)F)cc1-c1cncc(C(F)(F)F)c1)=C2O [Example 119, 7-[4-[[(4aR)-4-Hydroxy-4a-methyl-2-oxo-3-[[4-(trifluoromethyl)-2-[5-(trifluoromethyl)pyridin-3-yl]phenyl]carbamoyl]-6.7-dihydro-5H-pyrrolo[1,2-b]pyridazin-1-yl]methyl]-2.3-difluorophenyl]hept-6-ynoate] | 71
CSc1ccc(-c2cc(C(F)(F)F)ccc2NC(=O)C2=C(O)[C@@]3(C)CCCN3N(Cc3ccc(OCCCCOC[C@H](O)CO)c(F)c3F)C2=O)cn1 [Example 120, (4aR)-1-[[4-[4-[(2R)-2,3-Dihydroxypropoxy]butoxy]-2,3-difluorophenyl]methyl]-4-hydroxy-4a-methyl-N-[2-(6-methylsulfanylpyridin-3-yl)-4-(trifluoromethyl)phenyl]-2-oxo-6,7-dihydro-5H-pyrrolo[1,2-b]pyridazine-3-carboxamide] | 66
C[C@]12CCCN1N(Cc1ccc(OCCCCOC[C@H](O)CO)c(F)c1F)C(=O)C(C(=O)Nc1ccc(Cl)cc1-c1ccc(C(F)(F)F)nc1)=C2O [Example 121, (4aR)-N-[4-Chloro-2-[6-(trifluoromethyl)pyridin-3-yl]phenyl]-1-[[4-[4-[(2R)-2,3-dihydroxypropoxy]butoxy]-2,3-difluorophenyl]methyl]-4-hydroxy-4a-methyl-2-oxo-6,7-dihydro-5H-pyrrolo[1,2-b]pyridazine-3-carboxamide] | 72
C[C@]12CCCN1N(Cc1cccc(F)c1F)C(=O)C(C(=O)Nc1ccc(Br)cc1-c1ccc(Cl)nc1)=C2O [Example 122, (4aR)-N-[4-Bromo-2-(6-chloropyridin-3-yl)phenyl]-1-[(2,3-difluorophenyl)methyl]-4-hydroxy-4a-methyl-2-oxo-6,7-dihydro-5H-pyrrolo[1,2-b]pyridazine-3-carboxamide] | 82
